The text below walks through data of patent US20240368557A1, “STEM CELL-DERIVED ALPHA CELLS AND METHODS OF GENERATING SAME” (President and Fellows of Harvard College, priority 2018, published 2024).

Molecules are shown by their SMILES.

Format in all cases: cell-based, human
The subject of one test is SC-alpha cells. Description: glucagon secretion of SC-alpha cells with glucagon secretion modulators. The text has this:
To evaluate the ability of SC-alpha cells to respond to physiological conditions, we screened a number of glucagon secretion modulators and evaluated the effect on glucagon secretion. In the human islet, alpha cells secrete glucagon in response to low glucose conditions. […] Additionally, alpha cells respond to paracrine inhibitory signaling from delta cells through the hormone somatostatin resulting in suppressed glucagon secretion.
A number of pharmacological compounds have been developed to modulate glucagon secretion. We evaluated the effect of these compounds on SC-alpha cells to determine how well SC-alpha cells recapitulate the functional response of alpha cells (FIG. 4C).
Human islets or differentiated polyhormonal or SC-alpha cells were washed twice in low-glucose (2.8 mM) Krebs Ringer (KRB) buffer (128 mM NaCl, 5 mM KCl, 2.7 mM CaCl2, 1.2 mM MgSO4, 1 mM Na2HPO4, 1.2 mM KH2PO4, 5 mM NaHCO3, 10 mM HEPES, 0.1% BSA in milliQ). Cells were then loaded into 24 well transwell inserts and fasted in low glucose KRB for 1 hour at 37° C. Clusters were washed once in low glucose KRB and then incubated in low glucose KRB for 1 hour at 37° C. […] Cells were then dispersed and counted using a vicell automated cell counter. Collected supernatants were analyzed by ELISA for Insulin and/or glucagon and normalized to cell number.

A further test concerns polyhormonal cells. Description: PKC activator treatment in final stage (stage 6) of directed differentiation, flow cytometry. The procedure: (§1) Toward this goal, we initiated a small-molecule phenotypic screen to identify compounds that either promote alpha cell identity or conversely reduce proinsulin expression in vitro. Briefly, HUES8 cells were differentiated using our polyhormonal optimized protocol. Cells were dispersed and arrayed into a 384-well plate and compounds were introduced. HUES8-derived polyhormonal cells were co-incubated with a compound library for 96 hours, after which the cells were fixed and stained for pro/glucagon and pro/insulin. High-content imaging was used to quantify the percentage of cells expressing each hormone individually and the percentage of polyhormonal cells as marked by the co-expression of both hormones (FIGS. 3A-3B). In total 43 compounds were evaluated in quintuplicate. […] To confirm that the effects of this compound were not unique to the assay format, PdbU was evaluated in the final stage of the directed differentiation protocol.
To test the specificity of PKC activation on the results shown above, we compiled a small library of known PKC activators and evaluated their ability to similarly decrease insulin expression in polyhormonal cells. […] To that end, we treated polyhormonal cells for 28 days with either vehicle or each PKC activator and assessed the percentage of monohormonal expressing alpha cells at the end of the 28-day treatment. […]
For orientation: Flow cytometry measures light scatter and fluorescence of single cells or particles in a stream.

For test [1], the system named is HUES8 cells differentiated to SC-beta cells. Description: PdbU treatment of stage 6 SC-beta cell differentiation, flow cytometry. The text has this:
FIG. 7 provides flow cytometry of HUES8 cells differentiated to SC-beta cells and treated with PdbU for 14 days during stage 6.
Differentiation of hPSCs to beta cells results in a side population of polyhormonal cells. To this end we evaluated the effect of PKC activation on the differentiation of SC-beta cells. […] However, when treated with PdbU, the polyhormonal side population in the differentiation was reduced, and the percentage of monohormonal alpha cells was increased.
Cells were collected for flow cytometry analysis at various time points throughout the differentiation process. Cells were dispersed with TrypLE Express at 37° C. for 15 minutes after which trypsin was quenched with serum containing media (S1, S2, or S3). Cells were fixed in 4% PFA for 20 minutes and subsequently stored in PBS at 4° C. until staining. Staining was performed by first permeabilizing the cells in block solution (PBS+0.1% Triton X-100+5% donkey serum) for 40 minutes. Cells were then incubated with primary antibodies in block solution for 1 hour at RT, washed twice with PBST and incubated with secondary antibody in block solution for 1 hour at RT. Cells were then washed in three times and resuspended in PBST at a concentration of 1×10^6 cells/ml. Stained cells were analyzed using the Accuri C6 or Attune flow cytometers. Antibody concentrations used were as follows. Pro/insulin was assessed using an antibody that recognizes the c-peptide epitope from the Iowa Hybridoma Bank and used at a concentration of 1:300. Pro/glucagon was assessed using an antibody that recognizes the GLP-2 (Santa Cruz) or glucagon (Manufacturer) epitopes and used at a concentration of 1:300. Secondary antibodies used were a donkey-anti-goat-Alexaflour 488 (1:500) and a donkey-anti-rat-Alexaflour 647 (1:500).

Test [2] relates to HUES8-derived polyhormonal cells. Description: small-molecule phenotypic screen on polyhormonal cells (high-content imaging of pro/insulin and pro/glucagon). Conditions: 96 hours incubation, quintuplicate. The protocol:
as §1
Polyhormonal cells were dispersed using TrypLE Express for 15 minutes and quenched using S3 media. The resulting single cell suspension was arrayed into a 384 well plate which had been coated with Matrigel with 50,000 cells in each well. Compounds were introduced each to 5 separate wells and incubated for 96 hours after which cells were fixed with 4% PFA and stained for pro/insulin and pro/glucagon as described above with the following modifications. Antibody incubations and washes were performed using a BioTek EL405 Plate washer and dispenser. Cells were imaged with the cellomics array scan high content imaging system. Nine fields of view were captured for each well and analyzed for cell number and fluorescent content. The percentage of cells expressing pro/insulin and pro/glucagon was calculated for each well.

[3] abbreviates: stage 6 SC-beta cells treated with PdbU.

As to `COc1ccccc1OCC(O)CN1CCN(CC(=O)Nc2c(C)cccc2C)CC1` (stereo not drawn) [ranolazine], the “glucagon secretion from SC-alpha cells” value with SC-alpha cells is “increase glucagon secretion”.

As for `CCCC(=O)O[C@@H]1[C@@H](C)[C@@]2(O)[C@@H](C=C(CO)C[C@]3(O)C(=O)C(C)=C[C@@H]23)[C@@H]2C(C)(C)[C@]12OC(=O)CCC` [PdbU], in the test with polyhormonal cells (28 day treatment, stage 6, vs. 23±3% (comparison)), the “population of polyhormonal cells induced to reduce insulin expression” value is 46±4%. The “percentage of monohormonal SC-alpha cells after withdrawal of PdbU” value in the test with polyhormonal cells (cultured in the absence of PdbU for 7 days) is “did not significantly reduce”. Besides, the “percentage of Nkx6.1/C-peptide co-positive cells (number of beta cells)” value in test [1] (PdbU for 14 days during stage 6) is “did not have a significant effect”. Besides, in test [1] (setting [3]), the “percentage of monohormonal alpha cells in the SC-beta differentiation” value was “increased” and the “polyhormonal side population in the SC-beta differentiation” value is given as “reduced”. In addition, in test [2], the “percentage of cells expressing pro/glucagon” value was “increase”; the “percentage of polyhormonal cells (cells expressing both pro/insulin and pro/glucagon)” value is recorded as “significantly reduced”; the “percentage of pro/insulin expressing cells” value was “significantly decrease”.
